Experiments:
[1] = Tolerance / cytotoxicity of compounds in U2OS cells; assay type: cell-based; conditions: human, u2os cells, 8 h assay, read-out: concentration above which cytotoxic
Description: U2OS cells were treated with HU and the formation of mUb-FANCD2 in the presence of CU 1, CU2, and CU9 was evaluated relative to a DMSO control. Following a 1-h preincubation with the compounds, cells were treated with 2.5 mM of HU for 24 h. […] Accordingly, cells were treated with a higher concentration of compounds in further experiments.

U2OS cells = experiment: IncuCyte cell proliferation assay; assay type: cell-based
Description: Figure 4 Further cell-based assays with CU1 and CU2: (a, b) Representative immunofluorescence images of U2OS cells treated with HU (2.5 mM, 8 h) or cisplatin (10 μM, 8 h) in the presence or absence of CU1 (200 μM) or CU2 (500 μM). (c) Quantification of the number of FANCD2 foci in cells treated as in panels (a) and (b). Data accumulated over three independent experiments, each consisting of three technical replicas. (d) IncuCyte analysis of U2OS cells treated with or without carboplatin (15 μM) and CU2 (250 μM). Mean calculated from three wells, four images per well. (HU = DMSO + HU, cisplatin = DMSO + cisplatin).
Finally, to investigate if CU1 and CU2 could sensitize cells to a more clinically relevant chemotherapeutic agent, quantitative live cell analyses were performed using the IncuCyte platform. As the FA pathway is involved in the repair of ICLs, cells were treated with the ICL-inducing chemotherapeutic drug, carboplatin. For this experiment, U2OS cells were seeded at a relatively low (<10%) density and preincubated with CU1 or CU2 for 1 h. Carboplatin was then added to the cells and images were taken every 6 h for 8 days in order to monitor growth and proliferation of the cells.
Reaction mixtures were incubated for the indicated time at 37 °C and stopped by the addition of 2X reducing SDS -PAGE sample buffer, separated on NuPAGE Novex 4 –12% Bis/Tris gradient gels (Invitrogen) and visualized by Western blotting using the indicated antibodies (Table S3).
Cell culture. U2OS cells were cultured at 37 °C in a humidified atmosphere and 5% (v/v) CO2 in Dulbecco's Modified Eagle Medium (DMEM; Sigma-Aldrich) supplemented with 10% (v/v) fetal bovine serum (FBS), 100 units/ml of penicillin, […] of streptomycin and 292 μg/mL L-glutamine.
Cell extract preparation and immunoblotting. U2OS cells were lysed in buffer containing 50 mM Tris-HCl pH 7.5, 2% SDS, 10 mM NEM, cocktail protease inhibitor (Roche) and phosphatase inhibitor cocktail followed by sonication 100 µg of extracts were boiled for 5 mins at 95 °C in 5X loading buffer and loaded onto NuPAGE Novex 4–12% Bis/Tris gradient gels
(Invitrogen), or NuPAGE Novex 3-8% Tris/Acetate gradient gels (Invitrogen) for detection of mUb-FANCD2. After separation the gels were transferred to PVDF and the membranes were blocked with Tris-buffered saline containing 0.1% (v/v) Tween-20 (TBST) and 5% (v/v) bovine serum albumin (BSA) and incubated with the indicated primary and secondary antibodies. mUb-FANCD2 intensity was quantified using Image Studio (LI-COR).
IncuCyte cell proliferation assays. 2000 U2OS cells were seeded per well in 96-well plates and treated with compounds 24 hours afterwards. After 1 hour of compound treatment, 15 µM carboplatin (Sigma-Aldrich) was added and the cells were cultured in an incubator with an IncuCyte microscopy -platform (Essen BioScience). Phase -contrast images were acquired every 6 hours for 8 days until DMSO-carboplatin treated cells reached >80% confluence. Cell proliferation was monitored as the occupied area (% confluence) of cell images over time and calculated as percentage confluence over time. Cell confluency percentages were calculated using the integrated Cell Player software and results were analysed with Prism 6 (GraphPad Software).

UBE2T = experiment: Binding to UBE2T by differential scanning fluorimetry, ligand-observed NMR, native mass spectrometry; conditions: native mass spectrometry (unpublished data)

Row | SMILES | MCC at 8 h [1] | combined effect with carboplatin on cell growth (U2OS cells; 50 μM CU1 with 15 μM carboplatin) | concentrations that strongly inhibit cell growth (U2OS cells; IncuCyte) | binding to UBE2T (UBE2T) | confluency (U2OS cells; 250 μM CU2 combined with 15 μM carboplatin, after 8 days) | effect on cell growth (U2OS cells; CU2 250 μM alone) | confluency (U2OS cells; CU2 250 μM alone, after 6 days) | effect on cells upon longer cellular exposures (U2OS cells; CU2 500 μM, IncuCyte, up to 8 days)
1 | NCCN1C(=O)CC[C@H]2CN(Cc3cccc(-c4ccco4)c3)CC[C@H]21 [CU1] | > 300 µM | far less pronounced than that observed for CU2 | > 50 µM |  |  |  |  | 
2 | CCN1CCN(c2cc(C)nc3nc(CN4CCCCC4C)nn23)CC1 (centres unmarked) [CU2] |  |  |  | did not observe binding | < 50% | minimal effect on cell growth | 100% | cytotoxic/cytostatic

From PMC6804243, “Small-Molecule Inhibition of UBE2T/FANCL-Mediated Ubiquitylation in the Fanconi Anemia Pathway” (ACS Chemical Biology, 2019)
